Assay results from the NIST ThermoML archive (doi:10.1021/je060271a).
± gives the expanded uncertainty stated by the source.

Details: 343.15 K, Liquid, Vibrating tube method

CCCCCCC(=O)OCC(COC(=O)CCCCCC)(COC(=O)CCCCCC)COC(=O)CCCCCC [pentaerythritol tetraheptanoate]
Details	mass density [kg/m3]
18415 kPa	953.8 ± 1.2
18445 kPa	953.9 ± 1.2
18482 kPa	953.8 ± 1.2
18513 kPa	954 ± 1.2
18540 kPa	953.8 ± 1.2
18543 kPa	953.8 ± 1.2
18564 kPa	954 ± 1.2
18575 kPa	953.9 ± 1.2
18587 kPa	953.9 ± 1.2
18610 kPa	954 ± 1.2
18613 kPa	954 ± 1.2
18633 kPa	954 ± 1.2
18645 kPa	953.9 ± 1.2
18661 kPa	954.1 ± 1.2
18683 kPa	953.9 ± 1.2
18685 kPa	954.1 ± 1.2
18708 kPa	954 ± 1.2
18712 kPa	954 ± 1.2
18737 kPa	953.9 ± 1.2
18761 kPa	954.1 ± 1.2
18790 kPa	954 ± 1.2
18814 kPa	954 ± 1.2
18842 kPa	954 ± 1.2
18866 kPa	954.2 ± 1.2
18891 kPa	954 ± 1.2
18920 kPa	954.3 ± 1.2
18944 kPa	954.2 ± 1.2
18968 kPa	954.1 ± 1.2
18992 kPa	954.2 ± 1.2
19022 kPa	954.1 ± 1.2
19041 kPa	954.1 ± 1.2
19047 kPa	954.2 ± 1.2
19065 kPa	954.3 ± 1.2
19072 kPa	954.3 ± 1.2
19094 kPa	954.3 ± 1.2
19102 kPa	954.3 ± 1.2
19119 kPa	954.4 ± 1.2
19127 kPa	954.3 ± 1.2
19144 kPa	954.3 ± 1.2
19152 kPa	954.2 ± 1.2
19168 kPa	954.4 ± 1.2
19178 kPa	954.4 ± 1.2
19198 kPa	954.4 ± 1.2
19208 kPa	954.3 ± 1.2
19224 kPa	954.4 ± 1.2
19233 kPa	954.4 ± 1.2
19249 kPa	954.4 ± 1.2
19259 kPa	954.4 ± 1.2
19275 kPa	954.4 ± 1.2
19288 kPa	954.4 ± 1.2
19314 kPa	954.4 ± 1.2
19340 kPa	954.5 ± 1.2
19360 kPa	954.5 ± 1.2
19391 kPa	954.4 ± 1.2
19421 kPa	954.6 ± 1.2
19437 kPa	954.6 ± 1.2
19446 kPa	954.5 ± 1.2
19468 kPa	954.6 ± 1.2
19478 kPa	954.4 ± 1.2
19493 kPa	954.7 ± 1.2
19503 kPa	954.7 ± 1.2
19514 kPa	954.7 ± 1.2
19534 kPa	954.6 ± 1.2
19540 kPa	954.7 ± 1.2
19561 kPa	954.5 ± 1.2
19577 kPa	954.6 ± 1.2
19587 kPa	954.6 ± 1.2
19602 kPa	954.6 ± 1.2
19618 kPa	954.6 ± 1.2
19628 kPa	954.6 ± 1.2
19644 kPa	954.5 ± 1.2
19660 kPa	954.7 ± 1.2
19670 kPa	954.7 ± 1.2
19686 kPa	954.8 ± 1.2
19697 kPa	954.8 ± 1.2
19712 kPa	954.7 ± 1.2
19729 kPa	954.7 ± 1.2
19756 kPa	954.6 ± 1.2
19783 kPa	954.7 ± 1.2
19814 kPa	954.6 ± 1.2
19842 kPa	954.8 ± 1.2
19869 kPa	954.7 ± 1.2
19902 kPa	954.8 ± 1.2
19926 kPa	954.8 ± 1.2
19958 kPa	954.9 ± 1.2
19985 kPa	954.9 ± 1.2
20013 kPa	954.8 ± 1.2
20045 kPa	954.9 ± 1.2
20073 kPa	955 ± 1.2
20106 kPa	955 ± 1.2
20134 kPa	954.9 ± 1.2
20162 kPa	954.9 ± 1.2
20189 kPa	955 ± 1.2
20223 kPa	955 ± 1.2
20251 kPa	955.1 ± 1.2
20281 kPa	955 ± 1.2
20292 kPa	955.2 ± 1.2
20310 kPa	955.1 ± 1.2
20321 kPa	955.1 ± 1.2
20344 kPa	955.1 ± 1.2
20350 kPa	955.1 ± 1.2
20373 kPa	955.1 ± 1.2
20384 kPa	955.1 ± 1.2
20401 kPa	955 ± 1.2
20412 kPa	955.1 ± 1.2
20429 kPa	955.1 ± 1.2
20463 kPa	955.2 ± 1.2
20492 kPa	955.2 ± 1.2
20504 kPa	955.2 ± 1.2
20527 kPa	955.3 ± 1.2
20555 kPa	955.2 ± 1.2
20585 kPa	955.2 ± 1.2
20620 kPa	955.3 ± 1.2
20649 kPa	955.4 ± 1.2
20679 kPa	955.3 ± 1.2
20691 kPa	955.3 ± 1.2
20708 kPa	955.3 ± 1.2
20744 kPa	955.3 ± 1.2
20773 kPa	955.5 ± 1.2
20781 kPa	955.3 ± 1.2
20803 kPa	955.4 ± 1.2
20839 kPa	955.3 ± 1.2
20869 kPa	955.5 ± 1.2
20905 kPa	955.6 ± 1.2
20935 kPa	955.4 ± 1.2
20965 kPa	955.6 ± 1.2
20996 kPa	955.5 ± 1.2
21033 kPa	955.5 ± 1.2
21064 kPa	955.6 ± 1.2
21069 kPa	955.7 ± 1.2
21096 kPa	955.6 ± 1.2
21102 kPa	955.7 ± 1.2
21133 kPa	955.6 ± 1.2
21165 kPa	955.6 ± 1.2
21196 kPa	955.7 ± 1.2
21229 kPa	955.8 ± 1.2
21267 kPa	955.7 ± 1.2
21295 kPa	955.7 ± 1.2
21320 kPa	955.9 ± 1.2
21350 kPa	955.8 ± 1.2
21376 kPa	955.8 ± 1.2
21401 kPa	955.8 ± 1.2
21432 kPa	955.8 ± 1.2
21456 kPa	955.9 ± 1.2
21483 kPa	955.8 ± 1.2
21509 kPa	955.8 ± 1.2
21540 kPa	955.9 ± 1.2
21565 kPa	955.9 ± 1.2
21591 kPa	955.9 ± 1.2
21622 kPa	956 ± 1.2
21647 kPa	956 ± 1.2
21678 kPa	955.9 ± 1.2
21704 kPa	955.9 ± 1.2
21730 kPa	956.1 ± 1.2
21760 kPa	956 ± 1.2
21786 kPa	956.1 ± 1.2
21813 kPa	956.2 ± 1.2
21840 kPa	956.1 ± 1.2
21872 kPa	956.1 ± 1.2
21898 kPa	956.2 ± 1.2
21930 kPa	956.1 ± 1.2
21956 kPa	956 ± 1.2
21983 kPa	956.1 ± 1.2
22010 kPa	956.2 ± 1.2
22042 kPa	956.2 ± 1.2
22069 kPa	956.3 ± 1.2
22096 kPa	956.1 ± 1.2
22127 kPa	956.3 ± 1.2
22129 kPa	956.2 ± 1.2
22156 kPa	956.3 ± 1.2
22161 kPa	956.2 ± 1.2
22190 kPa	956.3 ± 1.2
22195 kPa	956.4 ± 1.2
22217 kPa	956.2 ± 1.2
22244 kPa	956.3 ± 1.2
22272 kPa	956.3 ± 1.2
22300 kPa	956.3 ± 1.2
22332 kPa	956.4 ± 1.2
22360 kPa	956.5 ± 1.2
22388 kPa	956.4 ± 1.2
22421 kPa	956.4 ± 1.2
22449 kPa	956.5 ± 1.2
22478 kPa	956.4 ± 1.2
22512 kPa	956.6 ± 1.2
22540 kPa	956.6 ± 1.2
22570 kPa	956.6 ± 1.2
22599 kPa	956.7 ± 1.2
22633 kPa	956.5 ± 1.2
22661 kPa	956.6 ± 1.2
22690 kPa	956.6 ± 1.2
22704 kPa	956.7 ± 1.2
22724 kPa	956.6 ± 1.2
22740 kPa	956.7 ± 1.2
22753 kPa	956.8 ± 1.2
22782 kPa	956.6 ± 1.2
22817 kPa	956.7 ± 1.2
22846 kPa	956.8 ± 1.2
22874 kPa	956.6 ± 1.2
22910 kPa	956.7 ± 1.2
22939 kPa	956.9 ± 1.2
22970 kPa	956.7 ± 1.2
23000 kPa	956.8 ± 1.2
23030 kPa	956.9 ± 1.2
23066 kPa	956.9 ± 1.2
23095 kPa	956.9 ± 1.2
23125 kPa	956.9 ± 1.2
23162 kPa	957 ± 1.2
23191 kPa	957 ± 1.2
23227 kPa	957 ± 1.2
23257 kPa	957.1 ± 1.2
23288 kPa	957 ± 1.2
23318 kPa	957 ± 1.2
23355 kPa	957 ± 1.2
23387 kPa	957.1 ± 1.2
23417 kPa	957.1 ± 1.2
23454 kPa	957.1 ± 1.2
23484 kPa	957.2 ± 1.2
23516 kPa	957.2 ± 1.2
23552 kPa	957.1 ± 1.2
23584 kPa	957.2 ± 1.2
23615 kPa	957.2 ± 1.2
23646 kPa	957.2 ± 1.2
23681 kPa	957.3 ± 1.2
